Experimental data: patent US4501755A, “Isoflavones useful as anti-inflammatory agents” (Pennwalt Corporation, priority 1982, dated 1985)
Where a name gives a salt, the structure may show the parent alone.

Each molecule was assayed on carrageenan-induced paw edemas of test rats (assay: carrageenan-induced paw edema (anti-inflammatory activity)). Conditions: 50 mg/kg p.o.; carrageenan injected 2 hours after dosing, paw volume measured 3 hours later; control group paw volume as 100% edema.
Type: in vivo, Male, Sprague-Dawley rats
Method: These properties were determined by carrageenan-induced paw edemas of test rats. Male, Sprague-Dawley rats (Blue Spruce Farm) were ordered at 124-140 g, housed for one week, and allowed food and water ad libitum. At the time of the experiments, only rats weighing 160-200 g were used.
All compounds were dissolved or suspended in a 0.5% water solution of Methocel and orally administered to groups of six rats each. Control rats received Methocel only. Two hours later, paw edema was induced by subcutaneous injection into the plantar surface of the right hind paw of 0.1 ml of a 1.0% homogenized suspension of carrageenan.
Immediately, the volume of the paw was measured by immersing it in mercury to above the lateral mateolus. The mercury in a glass cylinder 22 mm in diameter and 60 mm deep was connected at the bottom of the cylinder by a column of water to a Statham transducer (model P23BB), range 0-5 cm of mercury pressure. The volume was recorded electronically on a Beckman recorder, R511. Three hours later, the inflamed paw volume was measured again, and the change in volume was recorded for each group. The percent inhibition of edema was calculated using the control group paw volume as 100% edema, i.e.,
In the case of `CC(C)NCC(O)COc1ccc2c(=O)c(-c3ccccc3)c(C(C)C)oc2c1` (stereo not drawn) [Example 5, 7-(2-hydroxy-3-isopropylaminopropoxy)-2-isopropylisoflavone maleate], the “% Inhibition of Edema” value is reported as 29%.
In the case of `CC(C)NCC(O)COc1ccc2c(=O)c(-c3ccccc3)c(C(F)(F)F)oc2c1` (stereo not drawn) [Example 4, 7-(2-hydroxy-3-isopropylaminopropoxy)-2-trifluoromethylisoflavone hydrochloride], the “% Inhibition of Edema” value is reported as 31%.
For `CC(C)NCC(O)COc1ccc2c(=O)c(-c3ccccc3)coc2c1` (stereo not drawn) [Example 1, 7-(2-hydroxy-3-isopropylaminopropoxy)-3-phenylchromone hydrochloride], the “% Inhibition of Edema” value was 45%.
